Assays:
Type in all cases: in vivo, human
[1] = placebo-controlled double-blind study: plasma acid soluble thiol and thiol/disulfide redox status; settings: healthy male subjects, NAC three doses of 600 mg per day, vs placebo-treated group
Procedure: (§1) The placebo-controlled double-blind study was performed with healthy, normotonic male non-smoking subjects. The subjects had not taken alcohol, caffeine, or any medication at least during the last 24 hours prior to the study. Also, they had not been engaged in extensive physical exercise for at least 12 hours prior to the study. Twenty-eight subjects were recruited into the study and randomized for the treatment with NAC or placebo. NAC (200 mg capsules) or placebo were administered in three doses of 600 mg per day at 8.00 a.m., 4.00 p.m. and 11.00 p.m. The plasma concentrations of acid soluble thiol (mainly cysteine) and cystine (cysteine disulfide) were determined in the cubital venous blood by a photometric assay and by the amino acid analyzer, respectively. […] The EPO concentration in serum was determined by the help of a commercial EPO ELISA kit.

erythropoietin (EPO) = assay: placebo-controlled double-blind study: EPO concentration by EPO ELISA kit
Procedure: as §1

oxygen sensors = assay: placebo-controlled double-blind study: isocapnic hypoxic ventilatory response
Procedure: The placebo-controlled double-blind study was performed with healthy, normotonic male non-smoking subjects. The subjects had not taken alcohol, caffeine, or any medication at least during the last 24 hours prior to the study. Also, they had not been engaged in extensive physical exercise for at least 12 hours prior to the study. Twenty-eight subjects were recruited into the study and randomized for the treatment with NAC or placebo. NAC (200 mg capsules) or placebo were administered in three doses of 600 mg per day at 8.00 a.m., 4.00 p.m. and 11.00 p.m. In addition, the hypoxic ventilatory response of the subjects was quantitatively determined. The ventilatory activity was determined under two different experimental conditions using an equipment of oxychon-beta. The first measurement, the so-called “isocapnic hypoxic ventilatory response” (isocapnic HVR), was tested under normoxic conditions, i.e., under conditions of normal oxygen concentration and constant carbon dioxide concentration. The second measurement, the so-called poikilocapnic hypoxic ventilatory response (poikilocapnic HVR), was determined under normobaric conditions in a hypoxia chamber with a constant FiO2 of 12%. The term “poikilocapnic” describes study conditions characterized by a variable carbon dioxide concentration in the expiratory air, whereas the term “isocapnic” refers to conditions with a constant carbon dioxide concentration.

[2] = summary statement of the placebo-controlled double-blind study

For `CC(=O)N[C@@H](CS)C(=O)O` [NAC, N-acetylcysteine], the “plasma thiol concentration (T), relative change” value ([1]; P<0.01 (FIG. 1)) was “significantly increased”, the “plasma thiol/disulfide redox status (thiol^2 disulfide^−1), relative change” value ([1]; P<0.05 (FIG. 1)) was “increased” and the “plasma EPO concentration after exposure to the hypoxia chamber (Eh), relative change” value (erythropoietin (EPO); 2 hrs after the 6-hr-exposure to the hypoxia chamber, vs placebo-treated group, P<0.05 (FIG. 1)) was “increased”. The “plasma EPO concentration (E), relative change” value (erythropoietin (EPO); before exposure to the hypoxia chamber, vs placebo-treated group, P<0.05 (FIG. 1)) was “increased”, the “increase in plasma EPO concentration (E) between time 1 and time 2” value (erythropoietin (EPO); before vs 5 days after start of treatment, P value <0.05 (FIG. 2)) was “significantly different from that of the placebo-treated control group” and the plasma erythropietin concentration (erythropoietin (EPO); [2]) was “increase”. The “increase in ventilatory activity (H, isocapnic hypoxic ventilatory response) between time 1 and time 2” value (oxygen sensors; before vs 4 days after start of treatment, P value <0.01 (FIG. 2)) was “significantly different from that of the placebo-treated control group”, the “isocapnic hypoxic ventilatory response (H), relative change” value (oxygen sensors; healthy male subjects, NAC three doses of 600 mg per day, vs placebo-treated group (FIG. 1)) was “significantly increased” and the ventilatory activity (oxygen sensors; [2]) was “increase”.

From patent US20110237672A1, “Use of a cysteine-containing substance to increase the ventilatory activity and erythropoietin production” (2458781 CANADA INC., priority 2001, published 2011)
